From patent publication US20110021530A1, “PYRIDAZINE DERIVATIVES AND THEIR USE AS THERAPEUTIC AGENTS IN THE TREATMENT OF SKIN DISORDERS” (XENON PHARMACEUTICALS INC., priority 2008, published 2011)

Key:
[1] = test system: HEPG2; test: HEPG2 IC50; type: cell-based; details: Homo sapiens
[2] = target: T1, SCD (Mus musculus, UniProt P13516); test: Mouse SCD IC50 determination for compounds active in the HTS assay; type: biochemical
T1 sequence (P13516 1-355): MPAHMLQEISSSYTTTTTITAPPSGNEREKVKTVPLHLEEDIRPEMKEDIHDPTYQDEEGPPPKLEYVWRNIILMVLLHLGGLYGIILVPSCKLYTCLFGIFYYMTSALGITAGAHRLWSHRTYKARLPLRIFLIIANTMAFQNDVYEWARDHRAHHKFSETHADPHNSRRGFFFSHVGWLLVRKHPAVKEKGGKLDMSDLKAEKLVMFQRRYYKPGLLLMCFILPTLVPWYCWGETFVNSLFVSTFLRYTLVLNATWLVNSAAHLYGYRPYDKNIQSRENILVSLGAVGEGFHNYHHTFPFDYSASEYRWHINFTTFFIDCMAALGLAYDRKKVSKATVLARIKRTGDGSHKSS
Experimental: The compounds are analyzed with an HTS microsomal assay. The activities are defined in terms of % SCD enzyme activity remaining at the selected concentration (e.g., 10 μM) of the test compounds.

[3] = target: T2, stearoyl-CoA desaturase (SCD) (Mus musculus, UniProt P13516); test: HTS microsomal assay of stearoyl-CoA desaturase inhibition using mouse liver microsomes; type: biochemical; details: % SCD enzyme activity remaining at 10 μM test compound
T2 construct: Reactions are started by adding 2 mg of microsomal protein; from tissue; host or cells: liver microsomes of male ICR mice on a high-carbohydrate, low fat diet
T2 sequence (P13516 1-355): T1 sequence (P13516 1-355)
Experimental: The absence of mitochondrial contamination is enzymatically assessed.
The compounds are analyzed with an HTS microsomal assay.

Structure (SMILES)	IC50 [1]	IC50 [2]	Mouse microsome SCD activity % remaining @ 10 μM [3]
COc1ccc(CCNC(=O)c2ccc(N3CCN(C(=O)c4ccccc4C(F)(F)F)CC3)nn2)cc1 [6-[4-(2-TRIFLUOROMETHYLBENZOYL)PIPERAZIN-1-YL]PYRIDAZINE-3-CARBOXYLIC ACID [2-(4-METOXYPHENYL)ETHYL]AMIDE]	80 nM	1630 nM	7%
CCOC(=O)CCNC(=O)Nc1ccc(N2CCN(C(=O)c3ccccc3C(F)(F)F)CC2)nn1 [3-(3-{6-[4-(2-TRIFLUOROMETHYLBENZOYL)PIPERAZIN-1-YL]-PYRIDAZIN-3-YL}-UREIDO)PROPIONIC ACID ETHYL ESTER]	5430 nM	2770 nM	18%
O=C(NCCC1CC1)c1ccc(N2CCN(Cc3ccc(Cl)cc3Cl)CC2)nn1 [6-[4-(2,4-DICHLOROBENZYL)-PIPERAZIN-1-YL]PYRIDAZINE-3-CARBOXYLIC ACID (2-CYCLOPROPYLETHYL)AMIDE]	210 nM	230 nM	8%
O=C(NCCc1ccccc1)Nc1ccc(N2CCN(C(=O)c3ccccc3C(F)(F)F)CC2)nn1	230 nM	60 nM	15%
CCCCNC(=O)Nc1ccc(N2CCN(C(=O)c3ccccc3C(F)(F)F)CC2)nn1 [1-BUTYL-3-{6-[4-(2-TRIFLUOROMETHYLBENZOYL)PIPERAZIN-1-YL]PYRIDAZIN-3-YL}UREA]	210 nM	70 nM	13%

Other lines, results leading:

IC50 [1]	IC50 [2]	Mouse microsome SCD activity % remaining @ 10 μM [3]	Structure (SMILES)
70 nM	130 nM	11%	O=C(NCCC1CC1)c1ccc(N2CCN(Cc3ccc(F)cc3Cl)CC2)nn1 [6-[4-(2-CHLORO-4-FLUOROBENZYL)PIPERAZIN-1-YL]PYRIDAZINE-3-CARBOXYLIC ACID (2-CYCLOPROPYLETHYL)AMIDE]
60 nM	180 nM	8%	O=C(NCCC1CC1)c1ccc(N2CCN(Cc3cc(Cl)ccc3Cl)CC2)nn1 [6-[4-(2,5-DICHLOROBENZYL)PIPERAZIN-1-YL]PYRIDAZINE-3-CARBOXYLIC ACID (2-CYCLOPROPYLETHYL)AMIDE]
60 nM	180 nM	8%	O=C(NCCCC1CC1)c1ccc(N2CCN(Cc3cc(F)ccc3C(F)(F)F)CC2)nn1 [6-[4-(5-FLUORO-2-TRIFLUOROMETHYLBENZYL)PIPERAZIN-1-YL]PYRIDAZINE-3-CARBOXYLIC ACID (3-CYCLOPROPYLPROPYL)AMIDE]
70 nM	150 nM	6%	O=C(NCCC1CC1)c1ccc(N2CCN(C(=O)c3cc(C(F)(F)F)ccc3C(F)(F)F)CC2)nn1 [6-[4-(2,5-BIS-TRIFLUOROMETHYLBENZOYL)PIPERAZIN-1-YL]PYRIDAZINE-3-CARBOXYLIC ACID (2-CYCLOPROPYLETHYL)AMIDE]
40 nM	60 nM	7%	O=C(NCCC1CC1)c1ccc(N2CCN(Cc3cc(Cl)ccc3C(F)(F)F)CC2)nn1 [6-[4-(5-CHLORO-2-TRIFLUOROMETHYLBENZYL)PIPERAZIN-1-YL]PYRIDAZINE-3-CARBOXYLIC ACID (2-CYCLOPROPYLETHYL)AMIDE]
120 nM	110 nM	8%	CC(C(=O)N1CCN(c2ccc(C(=O)NCCC3CC3)nn2)CC1)(C(F)(F)F)C(F)(F)F [6-[4-(3,3,3-TRIFLUORO-2-METHYL-2-TRIFLUOROMETHYLPROPIONYL)PIPERAZIN-1-YL]PYRIDAZINE-3-CARBOXYLIC ACID (2-CYCLOPROPYLETHYL)AMIDE]
540 nM	340 nM	9%	CC(=CC(=O)N1CCN(c2ccc(C(=O)NCCC(C)C)nn2)CC1)C(F)(F)F [6-[4-(4,4,4-TRIFLUORO-3-METHYLBUT-2-ENOYL)PIPERAZIN-1-YL]PYRIDAZINE-3-CARBOXYLIC ACID (3-METHYLBUTYL)AMIDE]
